{"source": "patent US20230338391A1", "about": "“TREATMENT FOR DEPRESSION” (TAKEDA PHARMACEUTICAL COMPANY LIMITED, priority 2020, published 2023)", "key": {"in vivo": {"experiment": "in vivo", "set-up": "species or system Sprague-Dawley rats", "details": "both sexes, Sprague-Dawley, rat, po", "procedure": "(§1) An appropriate amount of methylcellulose (MC) was weighed and mixed with a small amount of warm water for injection. The mixture was then diluted with water for injection to make a 0.5% (w/v) MC solution. The vehicle was used for dosing in the control group. To make a 40 mg/mL suspension of COMPOUND A, an appropriate amount of the test article was weighed and mixed with the vehicle using a planetary centrifugal mixer and the mixture was then diluted with additional vehicle. The 40 mg/mL suspension was used to make 20 and 10 mg/mL suspensions by stepwise dilutions with the vehicle. The dosing suspensions were stored in a refrigerator (actual values: 3.7° C. to 6.1° C., acceptable range: 2° C. to 8° C.) under light-resistant conditions (tight container) and used within 8 days after preparation.\n(§2) Males and females in good condition were selected for this study based on examinations within 4 days before the first dosing. Based on their body weights, animals were stratified and allocated randomly to 3 main study groups, each composed of 18 males and 18 females, and 2 satellite groups each composed of 9 males and 9 females for determination of plasma drug and metabolite concentrations. Surplus animals after animal selection were excluded from the study on the day after the animal selection or the day dosing commenced (Day 1).\n(§3) The behavior of the high-dose main study and TK satellite groups was video-recorded continuously throughout the dosing period (until the morning on the day of necropsy) under non-GLP conditions. The video-recorded images were kept on a hard drive and were archived as study data. […]\n(§4) Each animal was weighed pre-dose using electronic balances (PB3002-S; Mettler-Toledo K.K. and UX4200H; Shimadzu Corporation) on Days 1, 2, 4, 7, 11, and 14 during the dosing period. Body weights were also measured for all animals on the day of necropsy on Days 3, 8, and 15, and these terminal body weight values were also used for calculation of the amount of anesthesia. […]"}, "Sprague-Dawley rats": {"test_system": "Sprague-Dawley rats", "experiment": "in vivo", "details": "female, rat, 200 mg/kg/day, 14 days", "procedure": "as §1, §2, §3, §4"}}, "data": [{"smiles": "CC1=CN2CCS(=O)(=O)N=C2C(c2ccc(OC3CCCCC3)cc2)=N1", "note": "[COMPOUND A, 9-[4-(Cyclohexyloxy)phenyl]-7-methyl-3,4-dihydropyrazino[2,1-c][1,2,4]thiadiazine 2,2-dioxide]", "values": [{"measurement": "NOAEL at 14 days", "setting": "in vivo", "result": 100, "unit": "mg/kg/day"}, {"measurement": "cerebellar Purkinje cell histopathology (HE, Fluoro-Jade)", "setting": "Sprague-Dawley rats", "result": "necrosis and/or Fluoro-Jade positive staining of Purkinje cells (dendrites, cell bodies, or axons) in 3 rats"}, {"measurement": "tonic convulsions (video recordings)", "setting": "Sprague-Dawley rats", "result": "tonic convulsions in 2 rats"}]}]}
